Laboratory results taken from publication PMC12430443, “Discovery of Novel Benzamide-Based Sigma-1 Receptor Agonists with Enhanced Selectivity and Safety” (Molecules, 2025).

Columns and labels:
[1] = target: adrenergic α1a receptor (Homo sapiens, UniProt P35348); assay: Off-target panel, aequorin functional assay; assay type: cell-based; settings: 10 µM, duplicate; % inhibition of reference agonist activity
Procedure: (§1) Among the synthesized compounds, four derivatives were selected based on their affinity and selectivity profiles. […] The remaining compounds (2, 3, 6, and 7) were assessed for their agonist and antagonist activities across a panel of 58 receptors relevant to CNS disorders, including serotonin, adenosine, adrenergic, cannabinoid, dopamine, histamine, and muscarinic receptors. These assays were conducted at a concentration of 10 µM, in duplicate, utilizing aequorin [19], cAMP HTRF™ [20], and GTPγS binding assays, as detailed in Table 2. […] Specifically, compound 6 antagonized four receptors (5-HT2A, 5-HT2C, α1a, H1), while compound 7 was active against five receptors (5-HT2A, 5-HT3, α1a, H1, M1).
(§2) Rapidly, the tests were performed by Euroscreen (https://euroscreenfast.com/) with recombinant human G-coupled receptor-expressing cell lines using aequorin functional assays for serotonin 5-HT2A, 5-HT2B, 5-HT2C, 5-HT3, and 5-HT5A, adrenergic α1a and α1b, angiotensin AT1, cholesistokinin CCFK1, endothelin ETA, histamine H1, muscarinic M1 and M3, neurokinin NK1 and NK2, vasopressin V1a, and vasoactive intestinal peptide VPAC1 receptor analysis. Then, cAMP HTRF^TM assays were used to analyze serotonin 5-HT1A, 5-HT4E, 5-HT6, and 5-HT7, adenosine A1, A2A, and A3, adrenergic β1 and β2, cannabinoid CB1, dopamine D1, histamine H2, and neuropeptide Y NPY receptors. GTPγS^35 assays were used to analyze serotonin 5-HT1B, adrenergic α2a and α2b, dopamine D2, muscarinic M2 and M4, opioid δ, κ and µ, and somatostatine SST4 receptors.
(§3) Agonist and antagonist activities of the test compound are expressed as the percentage of the activity of the reference agonist at its EC100 concentration or the percentage of inhibition of the reference agonist activity at its EC80 concentration, respectively.
(§4) For the aequorin assays, different cell lines co-expressing the receptors were grown in specific culture media and incubated for 4 h with coelenterazine h. For agonist testing, cell suspensions were mixed with test or reference agonists in a 96-well plate. For antagonist testing, the reference agonist at its EC80 (final concentration) was injected to the mix the containing cells and the tested compound. The resulting emission of light was recorded using the Hamamatsu Functional Drug Screening System 6000 [19].

[2] = target: adrenergic α1b receptor (Homo sapiens, UniProt P35368); assay: Off-target panel, aequorin functional assay; assay type: cell-based; settings: 10 µM, duplicate; % inhibition of reference agonist activity
adrenergic α1b receptor, sequence (P35368 whole entry): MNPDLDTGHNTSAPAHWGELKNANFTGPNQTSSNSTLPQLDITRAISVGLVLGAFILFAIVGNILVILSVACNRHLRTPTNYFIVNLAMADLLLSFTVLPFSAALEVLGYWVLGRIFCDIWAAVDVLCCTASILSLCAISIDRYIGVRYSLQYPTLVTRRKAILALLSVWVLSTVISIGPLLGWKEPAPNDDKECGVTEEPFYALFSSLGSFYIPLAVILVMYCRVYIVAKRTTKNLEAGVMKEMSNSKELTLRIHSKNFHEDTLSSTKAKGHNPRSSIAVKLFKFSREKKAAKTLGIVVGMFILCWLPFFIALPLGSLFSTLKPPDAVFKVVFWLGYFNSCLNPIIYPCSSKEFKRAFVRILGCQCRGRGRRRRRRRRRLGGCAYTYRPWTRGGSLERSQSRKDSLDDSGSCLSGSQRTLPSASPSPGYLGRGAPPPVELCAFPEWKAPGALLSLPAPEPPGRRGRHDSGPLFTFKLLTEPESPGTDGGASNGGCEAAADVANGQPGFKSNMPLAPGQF
Procedure: as §1, §2, §3, §4

[3] = target: serotonin 5-HT3 receptor (Homo sapiens, UniProt P46098); assay: Off-target panel, aequorin functional assay; assay type: cell-based; settings: 10 µM, duplicate; % inhibition of reference agonist activity
serotonin 5-HT3 receptor, sequence (P46098 24-478): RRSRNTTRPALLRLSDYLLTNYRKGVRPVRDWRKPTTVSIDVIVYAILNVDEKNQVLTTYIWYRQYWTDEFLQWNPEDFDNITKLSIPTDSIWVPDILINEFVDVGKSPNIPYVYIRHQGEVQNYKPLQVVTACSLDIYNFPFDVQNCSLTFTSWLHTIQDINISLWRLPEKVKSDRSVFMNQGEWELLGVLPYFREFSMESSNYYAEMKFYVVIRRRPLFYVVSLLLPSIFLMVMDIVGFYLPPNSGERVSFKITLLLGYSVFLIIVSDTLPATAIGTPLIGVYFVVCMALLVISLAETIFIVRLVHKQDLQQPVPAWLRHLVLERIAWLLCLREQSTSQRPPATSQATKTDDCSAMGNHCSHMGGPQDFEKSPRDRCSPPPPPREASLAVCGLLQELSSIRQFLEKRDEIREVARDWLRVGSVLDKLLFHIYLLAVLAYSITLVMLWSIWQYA
Procedure: as §1, §2, §3, §4

[4] = target: adrenergic α2a receptor (Homo sapiens, UniProt P08913); assay: Off-target panel, GTPγS binding assay; assay type: biochemical; settings: 10 µM, duplicate; % inhibition of reference agonist activity
adrenergic α2a receptor, sequence (P08913 whole entry): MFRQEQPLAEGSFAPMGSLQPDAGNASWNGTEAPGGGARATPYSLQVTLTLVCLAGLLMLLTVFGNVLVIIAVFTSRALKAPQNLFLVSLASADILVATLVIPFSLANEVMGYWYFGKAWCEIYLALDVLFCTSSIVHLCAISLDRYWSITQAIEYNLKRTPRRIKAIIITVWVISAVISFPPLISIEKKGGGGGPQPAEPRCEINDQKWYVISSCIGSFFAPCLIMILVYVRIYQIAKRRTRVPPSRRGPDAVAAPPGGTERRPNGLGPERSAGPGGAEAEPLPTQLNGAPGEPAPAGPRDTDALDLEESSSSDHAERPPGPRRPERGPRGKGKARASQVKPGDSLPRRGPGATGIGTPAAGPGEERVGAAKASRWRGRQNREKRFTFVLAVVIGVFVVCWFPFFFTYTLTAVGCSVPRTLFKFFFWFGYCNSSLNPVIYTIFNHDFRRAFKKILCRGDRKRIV
Procedure: as §1, with “M1). […]” for “M1).”
as §3
(§5) For the GTPγS scintillation proximity assay, optimized specific conditions were determined for each receptor. […] were estimated with a PerkinElmer TopCount reader.

[5] = target: adrenergic α2b receptor (Homo sapiens, UniProt P18089); assay: Off-target panel, GTPγS binding assay; assay type: biochemical; settings: 10 µM, duplicate; % inhibition of reference agonist activity
adrenergic α2b receptor, sequence (P18089 whole entry): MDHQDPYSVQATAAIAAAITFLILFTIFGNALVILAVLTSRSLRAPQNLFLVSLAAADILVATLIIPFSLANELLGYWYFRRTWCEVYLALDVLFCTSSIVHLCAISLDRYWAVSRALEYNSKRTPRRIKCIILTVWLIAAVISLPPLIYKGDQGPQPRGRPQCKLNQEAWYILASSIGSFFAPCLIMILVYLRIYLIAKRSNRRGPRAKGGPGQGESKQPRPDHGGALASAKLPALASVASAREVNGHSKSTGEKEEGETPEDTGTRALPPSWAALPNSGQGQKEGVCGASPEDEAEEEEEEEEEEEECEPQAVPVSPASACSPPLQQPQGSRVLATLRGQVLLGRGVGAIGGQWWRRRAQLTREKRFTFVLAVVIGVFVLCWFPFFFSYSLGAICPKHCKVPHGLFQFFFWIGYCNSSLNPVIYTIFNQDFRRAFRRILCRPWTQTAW
Procedure: as §1, with “M1). […]” for “M1).”
as §3, §5

[6] = target: D4.4 (Homo sapiens, UniProt P21917); assay: Off-target panel of recombinant human receptors; assay type: cell-based; settings: 10 µM, duplicate; % inhibition of reference agonist activity
D4.4, sequence (P21917 whole entry): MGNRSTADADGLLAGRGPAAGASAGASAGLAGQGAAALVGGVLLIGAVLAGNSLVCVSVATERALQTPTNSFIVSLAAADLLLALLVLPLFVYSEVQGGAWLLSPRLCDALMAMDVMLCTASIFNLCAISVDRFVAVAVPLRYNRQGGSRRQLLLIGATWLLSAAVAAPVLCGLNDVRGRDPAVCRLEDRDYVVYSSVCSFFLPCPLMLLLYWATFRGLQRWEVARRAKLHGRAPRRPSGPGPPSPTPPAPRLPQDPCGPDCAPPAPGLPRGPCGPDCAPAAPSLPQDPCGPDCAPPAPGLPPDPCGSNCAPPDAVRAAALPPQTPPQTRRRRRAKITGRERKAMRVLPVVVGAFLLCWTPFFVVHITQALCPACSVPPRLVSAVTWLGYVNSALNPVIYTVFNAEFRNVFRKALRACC
Procedure: as §1, §3

[7] = target: histamine H1 receptor (Homo sapiens, UniProt P35367); assay: Off-target panel, aequorin functional assay; assay type: cell-based; settings: 10 µM
histamine H1 receptor, sequence (P35367 whole entry): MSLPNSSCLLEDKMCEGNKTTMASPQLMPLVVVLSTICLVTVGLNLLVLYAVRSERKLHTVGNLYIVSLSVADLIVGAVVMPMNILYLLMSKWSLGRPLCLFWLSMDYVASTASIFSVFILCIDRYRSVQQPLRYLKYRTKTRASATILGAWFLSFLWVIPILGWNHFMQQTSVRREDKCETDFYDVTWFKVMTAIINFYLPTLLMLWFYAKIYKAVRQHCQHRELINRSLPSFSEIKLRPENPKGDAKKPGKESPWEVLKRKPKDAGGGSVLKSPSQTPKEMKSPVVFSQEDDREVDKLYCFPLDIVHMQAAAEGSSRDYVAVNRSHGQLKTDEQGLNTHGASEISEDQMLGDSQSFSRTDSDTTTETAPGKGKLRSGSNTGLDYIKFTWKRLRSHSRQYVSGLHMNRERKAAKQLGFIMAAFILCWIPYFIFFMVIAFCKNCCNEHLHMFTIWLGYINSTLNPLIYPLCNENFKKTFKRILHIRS
Procedure: as §1, §2, §3, §4

adrenergic α1a receptor, sequence (P35348 whole entry): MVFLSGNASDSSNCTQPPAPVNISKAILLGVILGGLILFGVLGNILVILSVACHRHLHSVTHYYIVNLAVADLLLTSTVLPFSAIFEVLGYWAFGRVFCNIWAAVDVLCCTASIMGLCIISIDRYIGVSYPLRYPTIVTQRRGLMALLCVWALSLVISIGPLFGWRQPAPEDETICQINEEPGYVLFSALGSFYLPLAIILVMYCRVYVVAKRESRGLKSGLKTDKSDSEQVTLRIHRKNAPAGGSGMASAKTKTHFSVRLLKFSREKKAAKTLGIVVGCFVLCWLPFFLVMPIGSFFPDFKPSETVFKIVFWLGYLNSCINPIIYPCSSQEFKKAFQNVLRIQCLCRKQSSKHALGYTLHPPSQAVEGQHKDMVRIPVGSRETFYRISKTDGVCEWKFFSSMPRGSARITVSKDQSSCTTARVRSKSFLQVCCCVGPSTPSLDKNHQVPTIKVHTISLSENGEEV

| Compound | α1a [b] antagonist activity [1] [%] | α1b [b] antagonist activity [2] [%] | 5-HT3 [b] antagonist activity [3] [%] | α2a [b] antagonist activity [4] [%] | α2b [b] antagonist activity [5] [%] | D4.4 [b] antagonist activity [6] [%] | H1 antagonist activity (in words) [7] |
| --- | --- | --- | --- | --- | --- | --- | --- |
| CN(CCC(=O)NCc1cccc(Cl)c1)Cc1ccccc1 [Compound 2, 3-(Benzylmethylamino)-N-(3-chlorobenzyl)propanamide] | 64 | 70 | 68 | 61 | 59 | 64 | – |
| CN(CCC(=O)NCc1ccc(C#N)cc1)Cc1ccccc1 [Compound 6, 3-(Benzylmethylamino)-N-(4-cyanobenzyl)propanamide] | – | – | – | – | – | – | antagonized |
